Measured values published in patent publication US20020055174A1, “Complex for transferring an anionic substance of interest into a cell” (priority 2000, published 2002).
Ends that are not written are not given here.

How the values were obtained:
[1] = Liposome leakage assay, POPC liposomes containing calcein; conditions: pH5 and pH7, 20 μg as starting point
Experimental: Leakage activity was plotted against peptide concentration.
The peptide ppTG1 was tested for its capacity to cause membrane disruption in a liposome leakage assay with POPC liposomes containing the fluorescent product calcein. […] Release of calcein by Triton X-100 treatment was taken as positive control reaction, incubation with water served as negative control. The membranolytic activity of peptide ppTG1 (20 μg as starting point) was compared with those of equal quantities (20 μg) of JTS-1, JTS-1-K13 and KALA.

[2] = system: B6SJL mice
Experimental: Indicated amounts of the luciferase expression plasmid pTG11236 were mixed with ppTG1 and /or pcTG90/DOPE. The resulting formulations were injected intramuscularly(30 μl), intravenously(250 μl) into mice or intratumorally (Renca tumors, 100 μgl). Muscles, tumors or organs were recovered at the indicated points of time, macerated and tested for luciferase activity with the luciferase assay kit from Promega.
60 μg or 30 μg of the plasmid pTG11236 were mixed with peptide ppTG1 and/or with a pcTG90/DOPE 1:2 mixture in 250 μl 5% glucose. After 20 min incubation at room temperature, the complexes were intravenously injected into B6SJL mice. Mice were sacrificed at day 1. The lungs were recovered, total protein was extracted and luciferase activity was analysed.
The potential of gene transfer with mono-component peptide vectors was investigated in vivo. Fifty or sixty μg of the luciferase expression plasmid pTG11236 were complexed with pcTG90/DOPE (1:2) [+/−] 10 in 250 μl 5% glucose (Meyer et al. 2000). The resulting lipoplex vector served as reference for gene transfer studies with pTG11236 complexed with ppTG1, ppTG20 and ppTG32 in 250 μl 5% glucose. Five mice per group were intravenously injected, the animals were sacrificed at day 1 after injection. Lungs were tested for luciferase activity.

[3] = system: HeLa cells; test: Transfection in vitro, luciferase plasmid pTG11236; type: cell-based
Experimental: Cells were plated on 24 well plates at a density of 4×10^4 (293-EBNA ) or 7×10^4 (HeLa, Renca) cells/well in DMEM supplemented with 10% FCS. The next day, the medium was replaced by 200 μl serum-free DMEM and plasmid (pTG11056 or pTG11236)/peptide complexes or plasmid/peptide/lipid complexes were prepared in 30 μl 0.9% NaCl or 5% glucose. After 20 min at room temperature these complexes were added to the cells which were then incubated for 2-3 h at 37° C. and 5% CO2 before 1 ml serum-containing DMEM was added. Approximately 20-hours later, cells were lysed by addition of 100 μl 1× Promega lysis buffer, 20 μl of the lysates were analysed for luciferase activity. Proteins were quantified with the bicinchonic acid (BCA) colorimetric method (Smith, Anal. Biochem. 150 (1985), 76-85).
In another experiment, 7×10^4 HeLa cells, seeded on 24-well plates the day before transfection, were transfected with 0.5 μg or 0.05 μg pTG11236, complexed with Lipofectin or ppTG1. The plasmid/peptide complexes were prepared in 30 μl of 5% glucose or 0.9% NaCl and added to the cells (200 μl serum-free medium) after 20 min at room temperature. Serum-containing medium was added after 3 h, the cells were harvested the next day.
A comparison of the effect on transfection efficiency of ppTG1 and JTS-1-K13 was carried out in HeLa cells. Complexes of 0.5 μg or 0.05 μg pTG11236 were formed with increasing amounts the respective peptide.
A comparison of ppTG1 and KALA was carried out in HeLa and CHO cells. 5×10^4 cells were seeded on 24 well plates. The next day, cells were transfected with 500 ng and 50 ng of pTG11236, complexed with ppTG1 or KALA in 30 μl 0.9% NaCl. The charge ratio +/− varied from 1, 2, 3, 4, 7 to 10. Cells were harvested 20 h after transfection and lysis was obtained in 100 μl Promega lysis buffer. Luciferase activity and total protein concentrations in 20 μl were determined.
HeLa cells were seeded at a density of 6×10^4 cells on 24 well plates. The next day, cells were incubated with 200 μl serum-free medium, 30 μl of plasmid (50 ng)/peptide/lipid mixtures were added and incubated for 3 h at 37° C. in 5% CO2. 1 ml of DMEM+10% FCS was then added. The next day, the medium was removed and cells were washed with 500 μl of PBS and subsequently treated with 100 μl of Promega lysis buffer. Plates were stored at −80° C. until luciferase activity was measured of 20 μl of the cell lysate. The protein assay was performed using the Pierce BCA kit.
JTS1 was dissolved to 1 mg/ml in 1 mM NaOH and mixed with DNA diluted in 5% glucose. ppTG1 was then added to this solution. The pcTG90/DOPE ppTG1 mixtures were prepared as described in Example 6. Transfection assays were performed on HeLa cells with 50 ng of plasmid as described in Example 6.
The series of ppTG1 derivatives listed in Material and Methods were tested for their gene transfer efficiencies in Hela cells. 6×10^4 cells were transfected with 50 ng pTG11236 complexed with increasing amounts of peptide. Luciferase activity was analyzed day 1 after transfection. The results are shown in FIG. 10B (ppTG20, ppTG21), FIG. 10C(ppTG25, ppTG26, ppTG27), FIG. 10D (ppTG28 to ppTG33), FIG. 10E (PEG-ppTG1 and PEG-ppTG20), FIG. 10F (ppTG22 to ppTG24) and FIG. 10G (ppTG20-D).

[4] = system: plasmid pTG11236; test: Gel retardation assay (DNA binding)
Experimental: 3μg of the plasmid pTG11236 were incubated with increasing amounts of the respective peptide in a final volume of 30 μl with 0.9% NaCl. After 20 min of incubation at room temperature, 6 μl 5× loading buffer (glycerol and bromphenol blue in TAE buffer) were added and 10 μl of these solutions were analyzed on a 1% agarose gel in the presence of ethidium bromide.
The ability of ppTG1 peptide to complex DNA was analyzed by gel retardation assays. […] After 20 minutes incubation at room temperature, loading buffer was added and 10 μl of the resulting solution were analyzed on a 1% agarose gel.
ppTG1 derivatives as they are indicated in Materials and Methods, were tested for their capacity to bind plasmid DNA by gel retardation assays.

[5] = 60 μg pTG11236 with 150 μg ppTG1

## GLFKALLKLLKSLWKLLLKA
[1]
  membrane disruption (calcein release): capable of causing membrane disruption
[2]; [5]
  reporter gene expression after re-administration at day 3: still refractory
  reporter gene expression after re-administration at day 14: re-appearance of reporter gene expression
[2]; complexes of pTG11236 and ppTG1, i.v., day 1
  mice with gene expression in the lung: 5 out of 5
[2]; ppTG1/plasmid complexes, data not shown
  gene expression 3 days after injection: dropped 3 days after injection to background levels
[3]; 0.05 μg pTG11236, complexes in 0.9% NaCl
  luciferase activities: higher luciferase activities than observed for Lipofectin formulations
[3]; 0.5 μg or 0.05 μg pTG11236 with 1.17 μg or 0.117 μg ppTG1, charge ratio 1.8
  luciferase activities: comparable luciferase activities as observed for DNA formulated with Lipofectin
[3]; HeLa
  more efficient than the complex comprising KALA, best case: 3000 fold
[4]; 3 μg pTG11236, 1 μg = 0.35 nmol
  amount of peptide at which 50% of the DNA is complexed: 1 µg
[4]; 3 μg plasmid DNA (0.8 pmol), 4 μg peptide = 1.4 nmol
  amount of peptide giving retardation of plasmid: 4 µg
